Consider 2 compounds from patent US6552197B2, “Condensed-hexacyclic compounds and a process therefor” (Daiichi Pharmaceutical Co., Ltd., priority 1995, dated 2003).

Series [1] in a line: Hygroscopicity test (weight changes due to moisture absorption). It is filed as physicochemical. The conditions noted are these: exposed to humidity of 83% and 93% at 25° C. over 5 days; FIG. 1. The method, then:
A hygroscopicity test was conducted on (lS,9S)-1-amino-9-ethyl-5-fluoro-2,3-dihydro-9-hydroxy-4-methyl-1H,12H-benzo[de]pyrano[3′,4′:6,7]indolizino[1,2-b]-quinoline-10,13(9H,15H)-dione•methanesulfonate•dihydrate according to the present invention and (1S,9S)-1-amino-9-ethyl-5-fluoro-2,3-dihydro-9-hydroxy-4-methyl-1H,12H-benzo[de]pyrano[3′,4′:6,7]indolizino[1,2-b]-quinoline-10,13(9H,15H)-dione-hydrochloride (control product).
Described specifically, each salt was exposed to high-humidity conditions of 83% and 93% at 25° C. Over a period of 5 days, its weight changes were investigated.

A short description of series [2]: Color change on storage at high relative humidity, measured by a color difference meter. The format is physicochemical. The conditions noted are these: for color change observed on stored sample: stored at a high relative humidity. The method, then:
The control product was stored at a relative humidity of 93% and the degree of a color change was measured.

Setting [3] is: stored for 0 month, relative humidity 93%.
The mark [4] stands for this setting: stored for 1 month, 25° C., relative humidity 93%.
[5] abbreviates: stored for 2 months, 25° C., relative humidity 93%.

For `CC[C@@]1(O)C(=O)OCc2c1cc1n(c2=O)Cc2c-1nc1cc(F)c(C)c3c1c2[C@@H](N)CC3.Cl` [control product, (1S,9S)-1-amino-9-ethyl-5-fluoro-2,3-dihydro-9-hydroxy-4-methyl-1H,12H-benzo[de]pyrano[3′,4′:6,7]indolizino[1,2-b]-quinoline-10,13(9H,15H)-dione-hydrochloride], the “weight changes due to moisture absorption (hygroscopicity)” value in series [1] is “high hygroscopicity and a fast weight change due to hygroscopicity”. For the same compound, in series [2] (stored at 25° C., relative humidity 93%), the “decomposition by moisture absorption (conclusion from color change)” value is recorded as “decomposes by moisture absorption”. Also, in series [2], the “color change observed on stored sample” value is “color change (yellowish brown—brown; originally: yellow) was observed”. Moreover, in series [2] (setting [3]), the Color result is reported as “Yellow” and the “Lab (chromaticity, brightness)” value is reported as 81.68-81.69. In series [2] (setting [4]), the Color entry is recorded as “brown-yellow”; the “Lab (chromaticity, brightness)” value was 74.96-75.23; the “ΔE(H) (degree of a color difference)” value was 7.16-7.38. In addition, in series [2] (setting [5]), the Color result is listed as “brown-yellow”; the “Lab (chromaticity, brightness)” value was 62.65-67.43; the “ΔE(H) (degree of a color difference)” value is recorded as 14.53-19.24.
Turning to `CC[C@@]1(O)C(=O)OCc2c1cc1n(c2=O)Cc2c-1nc1cc(F)c(C)c3c1c2[C@@H](N)CC3` [methanesulfonate, (1S,9S)-1-Amino-9-ethyl-5-fluoro-2,3-dihydro-9-hydroxy-4-methyl-1H,12H-benzo[de]pyrano[3′,4′:6,7]-indolizino[1,2-b]quinoline-10,13(9H,15H)-dione•methanesulfonate•dihydrate], the “weight changes due to moisture absorption (hygroscopicity)” value in series [1] was “a gradual and small change”. Moreover, in series [2], the “color change observed on stored sample” value is “No color change”.
